Legend:
[1] = in ethanol; cited from earlier work
[2] = 25° C.; cited from earlier work
[3] = Biodistribution of DOX in mouse organs (DOX fluorescence); assay type: in vivo; conditions: mice n=3, 24 h after single i.v. injection, 2 mgDOX/kg
Procedure: To determine biodistribution of free DOX and DOX-LPSiNP in mouse, the organs (liver, spleen, kidney, lung, heart, and brain) were collected 24 h after injection, weighed, homogenized in 1.5 mL of 0.3 M HCl 70% ethanol solution, and further incubated in the same solution overnight to extract DOX molecules from the organs and DOX-LPSiNP. The homogenized solution was spun down at 10,000 rpm for 10 min and the supernatant was only used to measure the DOX fluorescence. The DOX fluorescence (λex=480nm and λem=590 nm) in each tissue was quantified as % injected dose (% ID) per gram of wet tissue.

[4] = In vivo toxicity (body mass, histology of kidney, liver, spleen); set-up: species or system mouse; conditions: mice n=3, 2 mgDOX/kg i.v., period of 3 weeks
Procedure: In vivo degradation, toxicity, and circulation. All animal work was performed in accordance with the institutional animal protocol guidelines in place at the Burnham Institute for Medical Research, and it was reviewed and approved by the Institute's Animal Research Committee. […] For in vivo degradation studies, the mice were sacrificed 1 day, 1 week and 4 weeks after injection, and the brain, heart, kidney, liver, lung, and spleen were collected. The tissues were weighed, digested, and then analyzed for silicon content using ICP-OES. For the in vivo toxicity studies, the mass of each mouse was monitored for 4 weeks after injection and compared with control mice (PBS-injected). The sections of kidney, liver, and spleen tissues harvested from the mice 1 day and 4 weeks after injection were stained with haematoxylin and eosin and then examined by a pathologist.
To examine preliminary in vivo toxicity, body mass of the mice was monitored every 3 days over a period of 3 weeks.

## O=C(O)c1ccccc1C1=c2cc3c4c(c2Oc2c1cc1c5c2CCCN5CCC1)CCC[N+]=4CCC3.[Cl-] [Rhodamine 101]
[1]
  quantum yield of standard: 100%

## OB(O)O [boric acid]
[2]
  pKa: 9.14

## COc1cccc2c1C(=O)c1c(O)c3c(c(O)c1C2=O)C[C@@](O)(C(=O)CO)C[C@@H]3O[C@H]1C[C@H](N)[C@H](O)[C@H](C)O1 [free DOX, doxorubicin]
[3]
  biodistribution of DOX: accumulated in kidney, lung, and heart
[4]
  body mass (weight) change vs PBS control: no statistically significant difference

Source: patent publication US20110300222A1, “LUMINESCENT POROUS SILICON NANOPARTICLES, METHODS OF MAKING AND USING SAME” (THE REGENTS OF THE UNIVERSITY OF CALIFORNIA, priority 2009, published 2011)
